Assay results reported in US20260103465A1, “GLYCOGEN SYNTHASE KINASE 3 INHIBITORS AND USES THEREOF” (The Broad Institute, Inc., priority 2023, published 2026).
Where two headings read alike, the source gives them in different places. Blank lines part the entries; values can stand above or below the compound they belong to.

What was measured:
[1] = biological target: T1, GSK3b (GST-full length GSK3b) (Homo sapiens, UniProt P49841); test: GSK3b TR-FRET kinase inhibition assay; format: biochemical
T1 construct: GST-full length GSK3b: [SignalChem G08-9G]; purchased SignalChem G08-9G
Description: (§1) TR-FRET assay was performed in a white, 384 well, low volume, flat bottom plate (Grenier). After a 30 minute preincubation in assay buffer with the indicated concentration of compound, the kinase activity was initiated by the addition of the substrates. 1 nM GSK3a (GST-full length GSK3a [SignalChem G08-10G]) or 1 nM GSK3b (GST-full length GSK3b: [SignalChem G08-9G]) were then incubated at ambient temperature for 100 minutes in 10 μl of 50 mM Tris, pH 7.5, 20 mM MgCl2, 0.05 mM DTT, 100 μg/ml BSA and 1% DMSO, with 200 nM biotinylated peptide substrate (biotinylated and S645 phosphorylated glycogen synthase 631-650) and ATP (e.g., at 2 μM, 4 μM, 10 μM, 100 μM, or 1 mM). The kinase activity was quenched with 2 μl of 250 mM EDTA. A 10 μl volume of 40 nM Strepavidin-d2, 2 nM […] antibody in TR-FRET Detection Buffer (Invitrogen) was then added. After 60 min at room temperature the plate was read on Envision plate reader using Ex: 340 nm, Em: 615 nm and […]. The normalized 665/615 Signal ratio versus log compound concentration was analyzed by XLFIT to yield IC50 values.

[2] = biological target: T2, GSK3a (GST-full length GSK3a) (Homo sapiens, UniProt P49840); test: GSK3a TR-FRET kinase inhibition assay; format: biochemical
T2 construct: GST-full length GSK3a [SignalChem G08-10G]; purchased SignalChem G08-10G
Description: as §1

[3] = 1 mM ATP, Table 3, read-out: GSK3b TR-FRET 1 mM ATP Average IC50
[4] = 1 mM ATP, Table 3, read-out: GSK3a TR-FRET 1 mM ATP Average IC50
[5] = 1 mM ATP, Table 5, read-out: GSK3β TR-FRET 1 mM ATP Average IC50
[6] = 1 mM ATP, Table 5, read-out: GSK3α TR-FRET 1 mM ATP Average IC50

T1 sequence (P49841 whole entry): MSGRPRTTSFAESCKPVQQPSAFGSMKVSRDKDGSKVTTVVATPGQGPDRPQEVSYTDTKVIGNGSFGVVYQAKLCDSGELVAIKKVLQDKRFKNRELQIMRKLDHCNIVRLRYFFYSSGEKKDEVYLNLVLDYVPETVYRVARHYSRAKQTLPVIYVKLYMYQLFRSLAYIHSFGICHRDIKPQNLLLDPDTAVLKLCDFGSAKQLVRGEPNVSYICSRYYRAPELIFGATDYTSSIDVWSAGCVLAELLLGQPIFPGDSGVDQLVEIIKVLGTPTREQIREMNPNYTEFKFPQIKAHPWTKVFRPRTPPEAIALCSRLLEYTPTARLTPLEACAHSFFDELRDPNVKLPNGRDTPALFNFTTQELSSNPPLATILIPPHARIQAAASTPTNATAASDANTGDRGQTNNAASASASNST
T2 sequence (P49840 whole entry): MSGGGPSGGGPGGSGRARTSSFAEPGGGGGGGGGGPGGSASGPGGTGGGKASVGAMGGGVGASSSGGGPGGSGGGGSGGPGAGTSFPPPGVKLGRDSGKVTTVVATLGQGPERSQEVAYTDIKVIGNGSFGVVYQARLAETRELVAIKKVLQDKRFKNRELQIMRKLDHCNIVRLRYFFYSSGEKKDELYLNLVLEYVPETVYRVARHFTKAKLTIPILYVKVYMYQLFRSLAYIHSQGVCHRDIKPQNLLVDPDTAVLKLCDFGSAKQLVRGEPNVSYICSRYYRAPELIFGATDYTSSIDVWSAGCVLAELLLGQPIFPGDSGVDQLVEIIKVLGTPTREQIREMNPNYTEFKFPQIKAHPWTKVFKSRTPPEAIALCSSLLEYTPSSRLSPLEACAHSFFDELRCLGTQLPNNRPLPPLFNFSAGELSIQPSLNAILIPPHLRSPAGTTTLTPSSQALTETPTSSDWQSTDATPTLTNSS

Structure (SMILES): CC1(C)CC(=O)C2=C(C1)Nc1ncc(C3CCCC3)c(C#N)c1C2(C)c1ccccc1 (single isomer, unassigned) [635A]
IC50 [1, 5]: 5 to 20 µM
IC50 [2, 6]: 5 to 20 µM

Structure (SMILES): CC1(C)CC(=O)C2=C(C1)Nc1ncc(C(F)(F)F)c(C3CC3)c1C2(C)c1ccccc1 (single isomer, unassigned) [642B]
IC50 [1, 5]: 5 to 20 µM
IC50 [2, 6]: 5 to 20 µM

Structure (SMILES): CC(C)c1cnc2c(c1C#N)C(C)(c1ccccc1)C1=C(CC(C)(C)CC1=O)N2 (single isomer, unassigned) [622B]
IC50 [1, 5]: 5 to 20 µM
IC50 [2, 6]: 5 to 20 µM

Structure (SMILES): CC(C)Oc1cccc(C2(C)C3=C(CC(C)(C)CC3=O)Nc3ncc(F)c(C#N)c32)c1 (single isomer, unassigned) [639B]
IC50 [1, 5]: ≤ 0.1 µM
IC50 [2, 6]: ≤ 0.1 µM

Structure (SMILES): CC(C)Oc1cccc(C2(C)C3=C(CC(C)(C)CC3=O)Nc3ncc(F)cc32)c1 (single isomer, unassigned) [629A]
IC50 [1, 5]: 5 to 20 µM

Structure (SMILES): Cc1c(C2(C)C3=C(CC(C)(C)CC3=O)Nc3ncc(F)cc32)cccc1S(C)(=O)=O (single isomer, unassigned) [643B]
IC50 [2, 6]: 5 to 20 µM

Structure (SMILES): C=Cc1cnc2c(c1Br)C(C)(c1ccccc1)C1=C(CC(C)(C)CC1=O)N2 (single isomer, unassigned) [640A]
IC50 [1, 5]: 5 to 20 µM

Structure (SMILES): CC(=O)c1cnc2c(c1C#N)C(C)(c1ccccc1)C1=C(CC(C)(C)CC1=O)N2 (single isomer, unassigned) [621B]
IC50 [1, 5]: 5 to 20 µM

Structure (SMILES): CC1(C)CC(=O)C2=C(C1)Nc1ncc(F)cc1C2(C)c1cccc(C(F)F)c1 (single isomer, unassigned) [623A]
IC50 [2, 6]: 5 to 20 µM

Structure (SMILES): CC1(C)CC2=C(C(=O)N1)C(C)(c1cccc(S(C)(=O)=O)c1)c1cccnc1N2 (single isomer, unassigned) [630B]
IC50 [2, 6]: 5 to 20 µM

Structure (SMILES): CC1(C)CC2=C(C(=O)N1)C(C)(c1ccccc1)c1cc(C(F)(F)F)cnc1N2 (single isomer, unassigned) [625B]
IC50 [2, 6]: 5 to 20 µM

Structure (SMILES): COc1cnc2c(c1C#N)C(C)(c1ccccc1)C1=C(CC(C)(C)CC1=O)N2 (single isomer, unassigned) [612A]
IC50 [1, 5]: 5 to 20 µM

Structure (SMILES): CC(C)c1cnc2c(c1C#N)C(C)(c1ccccc1)C1=C(CC(C)(C)CC1=O)N2 (single isomer, unassigned) [622A]
IC50 [1, 5]: 5 to 20 µM

Structure (SMILES): COc1cnc2c(c1)C(C)(c1ccccc1)C1=C(CC(C)(C)CC1=O)N2 (single isomer, unassigned) [602B]
IC50 [1, 5]: 5 to 20 µM

More lines, now with the values ahead:

IC50 ([1]; 2 μM ATP, read-out: GSK3β TR-FRET 2 μM ATP GMean IC50): 0.1 to 1 µM
IC50 ([2]; 4 μM ATP, read-out: GSK3α TR-FRET 4 μM ATP GMean IC50): 0.1 to 1 µM
Structure (SMILES): CCC1(c2ccccc2)C2=C(CC(C)(C)CC2=O)Nc2ncccc21 (racemic) [Compound 102]

IC50 [1, 3]: 1 to 5 µM
IC50 [2, 4]: 1 to 5 µM
Structure (SMILES): CC1(C)CC(=O)C2=C(C1)Nc1ncc3c(c1C2(C)c1ccccc1)CCC3 (single isomer, unassigned) [Compound 118B]

IC50 [1, 3]: 1 to 5 µM
IC50 [2, 4]: 1 to 5 µM
Structure (SMILES): CC1(C)CC(=O)C2=C(C1)Nc1ncc(F)c(C3CC3)c1C2(C)c1ccccc1 (single isomer, unassigned) [Compound 125B]

IC50 [1, 3]: 5 to 20 µM
IC50 [2, 4]: 5 to 20 µM
Structure (SMILES): COc1cncc(F)c1-c1cccc(C2(C)C3=C(CC(C)(C)CC3=O)Nc3ncc(F)cc32)c1 (single isomer, unassigned) [Compound 156B]

IC50 [1, 5]: 0.1 to 1 µM
IC50 [2, 6]: 0.1 to 1 µM
Structure (SMILES): CC1(C)CC2=C(C(=O)[C@@H]1F)[C@](C)(c1ccccc1)c1c(ncc(F)c1C#N)N2 (single isomer, unassigned) [Compound 616B]

IC50 [2, 4]: 5 to 20 µM
Structure (SMILES): CC1(C)CC(=O)C2=C(C1)Nc1nccc(C#N)c1C2(C)c1ccccc1 (single isomer, unassigned) [Compound 108B]

IC50 [1, 3]: 5 to 20 µM
Structure (SMILES): CC1(C)CC(=O)C2=C(C1)Nc1nccc(F)c1C2(C)c1ccccc1 (single isomer, unassigned) [Compound 105A]

IC50 [1, 3]: 5 to 20 µM
Structure (SMILES): CC1(C)CC(=O)C2=C(C1)Nc1ncc(F)cc1C2(C)c1ccccc1 (single isomer, unassigned) [Compound 107A]

IC50 [1, 3]: 5 to 20 µM
Structure (SMILES): CC1(C)CC(=O)C2=C(C1)Nc1ncc3c(c1C2(C)c1ccccc1)CCC3 (single isomer, unassigned) [Compound 118A]

IC50 [2, 4]: 5 to 20 µM
Structure (SMILES): CC1(C)CC(=O)C2=C(C1)Nc1ncc(F)c(F)c1C2(C)c1ccccc1 (single isomer, unassigned) [Compound 116A]
